{
  "source": "patent US12466816B2",
  "about": "“Fused cyclic compound capable of degrading protein and use thereof” (Medshine Discovery Inc., priority 2019, dated 2025)",
  "key": {"Wee1 [1]": {"molecular_target": "T1, Wee1 (Homo sapiens, UniProt P30291)", "T1 sequence (P30291 whole entry)": "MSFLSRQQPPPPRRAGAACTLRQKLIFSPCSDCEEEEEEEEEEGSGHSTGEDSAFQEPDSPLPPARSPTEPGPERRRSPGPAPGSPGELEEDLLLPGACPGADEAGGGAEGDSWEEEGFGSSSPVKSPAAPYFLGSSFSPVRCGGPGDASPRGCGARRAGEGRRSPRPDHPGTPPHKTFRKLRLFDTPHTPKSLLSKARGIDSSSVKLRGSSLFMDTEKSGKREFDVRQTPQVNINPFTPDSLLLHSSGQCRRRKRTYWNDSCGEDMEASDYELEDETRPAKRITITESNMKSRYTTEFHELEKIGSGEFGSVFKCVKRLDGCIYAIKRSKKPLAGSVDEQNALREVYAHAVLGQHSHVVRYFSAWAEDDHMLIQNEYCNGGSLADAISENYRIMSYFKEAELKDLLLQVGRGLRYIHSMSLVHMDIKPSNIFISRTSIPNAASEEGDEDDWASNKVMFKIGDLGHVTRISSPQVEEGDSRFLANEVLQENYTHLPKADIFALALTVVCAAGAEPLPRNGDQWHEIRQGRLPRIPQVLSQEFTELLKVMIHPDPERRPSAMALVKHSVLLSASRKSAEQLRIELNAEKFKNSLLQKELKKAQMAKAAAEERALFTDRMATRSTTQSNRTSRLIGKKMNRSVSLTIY", "experiment": "CRBN-dependent ubiquitin-mediated degradation of Wee1 (wild-type versus CRBN KO cells, Western blot)", "format": "cell-based", "set-up": "endogenous in cells; host or cells: U87-MG", "description": "293T cells and 293T CRBN KO cells were treated with DMSO, 1 μM WX106, 10 μM WX106 alone or in combination with 10 μM MG132 for 16 h, the whole-cell lysates were collected, and Wee1 protein expression was detected using Western blot. […] U87-MG cells and U87-MG CRBN KO cells were treated with 10 μM WX106 or WX106 plus 10 μM MG132 for 16 h, and the level of Wee1 protein expression was detected using Western blot."}, "CRBN": {"molecular_target": "CRBN (Homo sapiens, UniProt Q96SW2)", "sequence (Q96SW2 whole entry)": "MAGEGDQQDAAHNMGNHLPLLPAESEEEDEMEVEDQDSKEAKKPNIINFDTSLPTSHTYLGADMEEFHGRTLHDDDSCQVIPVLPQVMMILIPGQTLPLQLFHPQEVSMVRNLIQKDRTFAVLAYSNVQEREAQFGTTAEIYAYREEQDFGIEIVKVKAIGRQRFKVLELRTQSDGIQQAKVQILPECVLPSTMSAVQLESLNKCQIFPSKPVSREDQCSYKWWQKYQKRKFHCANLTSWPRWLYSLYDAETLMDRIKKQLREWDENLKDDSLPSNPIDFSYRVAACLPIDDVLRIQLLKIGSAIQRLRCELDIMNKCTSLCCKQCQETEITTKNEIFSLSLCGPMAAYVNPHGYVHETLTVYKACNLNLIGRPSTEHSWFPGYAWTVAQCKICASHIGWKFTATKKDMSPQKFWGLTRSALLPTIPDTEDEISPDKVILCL", "experiment": "Thermal displacement experiment (CRBN thermal stability, Western blot)", "format": "binding", "set-up": "endogenous in cells", "conditions": "100 μM, 293T cell lysates, 56° C. and 59° C.", "description": "The experiment utilizes the principle that the binding of small molecular compounds to proteins can improve the thermal stability of proteins. 3×10^7 cells were collected and washed twice with phosphate buffered saline (PBS). 100×protease inhibitor cocktail (APEXBIO, K1007) was added to pre-cooled PBS to suspend the cells, and 500 μL of cell suspension was aliquoted into each 1.5 EP tube. The EP tube was placed in liquid nitrogen for quick freezing for 5 min and then transferred to a 26° C. water bath quickly; thereafter, the EP tube was transferred to a 4° C. environment when the liquid is half thawed, until it is completely thawed. This freeze-thaw procedure was performed thrice to allow complete protein precipitation from the cells. The frozen-thawed product was centrifuged at 4° C. for 20 min, the supernatant was aspirated and mixed, and then aliquoted into 1.5 mL EP tubes, and DMSO and WX106 were added respectively to adjust the concentration of WX106 in the solution to 100 μM. […] After the heat shock at all temperatures, the DMSO- and WX106-treated samples at each temperature were collected respectively, centrifuged at 4° C. for 20 min, and the concentration of BCA protein (Thermo) was quantified; at the same time, Western blot was performed to detect the changes of CRBN (Anti-CRBN antibody, Sigma Company, HPA045910) protein content. […]"}, "Wee1 [2]": {"molecular_target": "T1, Wee1", "experiment": "Detection of compounds that degrade Wee1 protein (Western blot)", "format": "cell-based", "set-up": "endogenous in cells; host or cells: MOLT-4, U87-MG", "conditions": "MOLT-4 cells 10 μM 4 hours, U87-MG cells 1 μM 24 hours", "description": "MOLT-4 cells were treated with 10 μM of the test compound for 4 hours and U87-MG cells were treated with 1 μM of the test compound for 24 hours, respectively. With GAPDH (Santa Cruz, sc-32233) as the internal reference protein, the protein level of Wee1 (Cell Signaling, 13084S) was detected using Western blot. Cells were collected, lysed with protein loading buffer (1M Tris-HCl, 10% SDS, 0.025% BPB), and denatured at 98° C. for 10 min before Western blot analysis. The main steps include: 1) Electrophoresis: The protein was separated by SDS-PAGE electrophoresis. During the electrophoresis, the voltage was adjusted to 80 v for about 30 min, and then the voltage was adjusted to 120 v until the bromophenol blue ran out of the gel. 2) Transfer to a membrane: the gel was stuck to a methanol-activated PVDF membrane using the method of wet transfer, and after the top and bottom layers were wrapped with filter paper, the membrane was placed into the gel holder cassette and fixed to the transfer tank, and transfer was performed at a constant current of 250 mA for 90 min; 3) Blocking: the PVDF membrane with trace protein was placed into the antibody incubation box, 5% skim milk was added to completely cover the PVDF membrane, and incubation was performed for 1 hour on a shaker at room temperature; 4) Incubation of the primary antibody: the primary antibody was prepared with 5% BSA (1:1000) and incubated overnight on a shaker at 4° C.; 5) Incubation of the secondary antibody: the membrane was washed thrice with TBST, the secondary antibody (prepared with 5% skim milk) was added (according to the species source of the primary antibody, different secondary antibodies with a dilution range of 1:3000-1:10000 were used), and incubation was performed on a shaker at room temperature for one hour; 5) Exposure: the membrane was washed thrice with TBST and the bands on the membrane were detected by chemiluminescence."}, "tumor cell lines": {"system": "tumor cell lines", "experiment": "Cell experiment: CCK-8 growth inhibition of tumor cell lines", "format": "cell-based", "conditions": "72 hours, hematological tumor cells and some liver cancer cells, read-out: growth inhibitory effect (inhibition rate)", "description": "Different cells were seeded in 96-well plates (the density of adherent cells was 1,000/well and the density of suspension cells was 10,000/well), 10 μM of WX106 was added for 72 hours of action, and CCK-8 reagent (Meilun Biotechnology, MA0218-L) was added for 2 hours of reaction thereafter; and the plate was then read with a microplate reader (SpectraMax i3) and the inhibition rate was calculated. Inhibition rate=[(Ac−As)/(Ac−Ab)]×100% (where As represents the absorbance of experimental wells, Ac represents the absorbance of control wells, and Ab represents the absorbance of blank wells).\nEighteen tumor cell lines were treated with 10 μM of WX106 for 72 hours, and the rate of inhibition of cell growth by WX106 was calculated."}, "[3]": {"system": "colorectal cancer cells and brain tumor cell lines", "experiment": "Clone formation experiment", "format": "cell-based", "conditions": "10 μM; some colorectal cancer cells and brain tumor cell lines", "description": "The effect of the compound on the monoclone-formation capacity of cells was examined. Cells were seeded in 6-well plates at low density (about 500 cells per well), 10 μM of WX106 was added for treatment, crystal violet staining (Beyotime Biotechnology, C0121) was performed when the cells grew into clones visible to the naked eye, and the number of clones was counted. All treatments were performed in at least three replicates."}, "MM.1S cells": {"system": "MM.1S cells", "experiment": "Sensitivity of MM.1S versus low-CRBN-expression MM.1S-p5000 cells to WX106 (CCK-8)", "format": "cell-based", "conditions": "10 μM, 72 h, MM.1S-p5000 versus MM.1S", "description": "WX106 (10 μM) was added to MM.1S cells and MM.1S-p5000 (Poma-resistant low-CRBN-expression cell line) cells, respectively, and cell proliferation was detected by CCK-8 after 72 h."}},
  "data": [
    {"compound": "Cc1ccc(C(=O)Nc2ccc3occ(C4CCC(=O)NC4=O)c3c2)cc1Cl", "note": "(stereo not drawn) [WX106]", "values": [
      {"measurement": "level of Wee1 expression in CRBN-deficient cells", "setting": "Wee1 [1]; 293T CRBN KO cells, 1 μM or 10 μM, 16 h", "result": "no significant change"},
      {"measurement": "Wee1 degradation in wild-type cells", "setting": "Wee1 [1]; 293T cells, 1 μM or 10 μM, 16 h", "result": "promoted Wee1 degradation"},
      {"measurement": "pro-degradation effect on Wee1 when MG132 was added", "setting": "Wee1 [1]; wild-type 293T cells, with 10 μM MG132, 16 h", "result": "absent"},
      {"measurement": "CRBN protein abundance after heat shock", "setting": "CRBN", "result": "significantly increased"},
      {"measurement": "pro-degradation effect on Wee1", "setting": "Wee1 [2]", "result": "pro-degradation effect on Wee1"},
      {"measurement": "relative strength of the pro-degradation effect on Wee1", "setting": "Wee1 [2]; among tested compounds", "result": "the strongest"},
      {"measurement": "inhibition at 10 µM", "setting": "tumor cell lines", "result": "> 50", "unit": "%"},
      {"measurement": "clone formation", "setting": "[3]", "result": "inhibits clone formation"},
      {"measurement": "sensitivity of cells to WX106 with low CRBN expression", "setting": "MM.1S cells", "result": "significantly less sensitive"}
    ]}
  ]
}
